Values quoted from earlier work as cited in patent US20240293547A1, “POLYMERIC PERFLUOROCARBON NANOEMULSIONS FOR ULTRASONIC DRUG UNCAGING” (The Board of Trustees of the Leland Stanford Junior …, priority 2017, published 2024).

Details: for LogP: of the loaded drug

Compound | log P | LogP
COC(=O)C1=C(C)NC(C)=C(C(=O)OCCN(C)Cc2ccccc2)C1c1cccc([N+](=O)[O-])c1 (stereo not drawn) [Nicardipine] | 3.8 | 3.82
Cc1cccc([C@H](C)c2cnc[nH]2)c1C [Dexmedetomidine] | – | 2.8
